Source: the CheMixHub viscosity set
± gives the uncertainty stated by the source.

Experiment: xn = mol fraction of the nth substance listed

For `CC(C)(C)N` + O, the viscosity (298 K, 101 kPa, x1 = 0.001) was 0.993 ± 0.013 mPa·s, the viscosity (298 K, 101 kPa, x1 = 0.01) was 1.068 ± 0.013 mPa·s and the viscosity (298 K, 101 kPa, x1 = 0.02) was 1.269 ± 0.014 mPa·s. The viscosity (298 K, 101 kPa, x1 = 0.03) was 1.527 ± 0.016 mPa·s, the viscosity (298 K, 101 kPa, x1 = 0.04) was 1.698 ± 0.017 mPa·s and the viscosity (298 K, 101 kPa, x1 = 0.05) was 1.89 ± 0.018 mPa·s. It also gave a viscosity (298 K, 101 kPa, x1 = 0.06) of 2.059 ± 0.019 mPa·s, a viscosity (298 K, 101 kPa, x1 = 0.08) of 2.363 ± 0.022 mPa·s and a viscosity (298 K, 101 kPa, x1 = 0.1) of 2.604 ± 0.023 mPa·s. For the same molecule, the viscosity (298 K, 101 kPa, x1 = 0.15) was 2.992 ± 0.026 mPa·s, the viscosity (298 K, 101 kPa, x1 = 0.2) was 3.112 ± 0.027 mPa·s and the viscosity (298 K, 101 kPa, x1 = 0.25) was 3.057 ± 0.027 mPa·s. It also gave a viscosity (298 K, 101 kPa, x1 = 0.3) of 2.832 ± 0.025 mPa·s, a viscosity (298 K, 101 kPa, x1 = 0.4) of 2.211 ± 0.021 mPa·s and a viscosity (298 K, 101 kPa, x1 = 0.5) of 1.642 ± 0.017 mPa·s. It also gave a viscosity (298 K, 101 kPa, x1 = 0.6) of 1.195 ± 0.014 mPa·s, a viscosity (298 K, 101 kPa, x1 = 0.7) of 0.881 ± 0.012 mPa·s and a viscosity (298 K, 101 kPa, x1 = 0.8) of 0.677 ± 0.011 mPa·s. The viscosity (298 K, 101 kPa, x1 = 0.85) was 0.594 ± 0.011 mPa·s, the viscosity (298 K, 101 kPa, x1 = 0.9) was 0.534 ± 0.011 mPa·s and the viscosity (298 K, 101 kPa, x1 = 0.92) was 0.523 ± 0.011 mPa·s. For the same molecule, the viscosity (298 K, 101 kPa, x1 = 0.95) was 0.48 ± 0.011 mPa·s, the viscosity (298 K, 101 kPa, x1 = 0.97) was 0.462 ± 0.011 mPa·s and the viscosity (298 K, 101 kPa, x1 = 0.98) was 0.456 ± 0.011 mPa·s. The viscosity (298 K, 101 kPa, x2 = 0.01) was 0.445 ± 0.011 mPa·s, the viscosity (298.15 K, 101.33 kPa, x1 = 0.1001) was 2.654 ± 0.016 mPa·s and the viscosity (298.15 K, 101.33 kPa, x1 = 0.2002) was 3.163 ± 0.019 mPa·s. The viscosity (298.15 K, 101.33 kPa, x1 = 0.2998) was 2.906 ± 0.019 mPa·s, the viscosity (298.15 K, 101.33 kPa, x1 = 0.3996) was 2.294 ± 0.017 mPa·s and the viscosity (298.15 K, 101.33 kPa, x1 = 0.5) was 1.69 ± 0.014 mPa·s. For the same molecule, the viscosity (298.15 K, 101.33 kPa, x1 = 0.5999) was 1.229 ± 0.011 mPa·s, the viscosity (298.15 K, 101.33 kPa, x1 = 0.6984) was 0.9094 ± 0.0088 mPa·s and the viscosity (298.15 K, 101.33 kPa, x1 = 0.7998) was 0.6936 ± 0.0073 mPa·s. For the same molecule, the viscosity (298.15 K, 101.33 kPa, x1 = 0.9) was 0.5459 ± 0.0063 mPa·s, the viscosity (303 K, 101 kPa, x1 = 0.001) was 0.81 ± 0.012 mPa·s and the viscosity (303 K, 101 kPa, x1 = 0.01) was 0.947 ± 0.013 mPa·s. The viscosity (303 K, 101 kPa, x1 = 0.02) was 1.116 ± 0.013 mPa·s, the viscosity (303 K, 101 kPa, x1 = 0.03) was 1.29 ± 0.014 mPa·s and the viscosity (303 K, 101 kPa, x1 = 0.04) was 1.455 ± 0.015 mPa·s. It also gave a viscosity (303 K, 101 kPa, x1 = 0.05) of 1.606 ± 0.016 mPa·s, a viscosity (303 K, 101 kPa, x1 = 0.06) of 1.745 ± 0.017 mPa·s and a viscosity (303 K, 101 kPa, x1 = 0.08) of 1.986 ± 0.019 mPa·s. The viscosity (303 K, 101 kPa, x1 = 0.1) was 2.189 ± 0.02 mPa·s, the viscosity (303 K, 101 kPa, x1 = 0.15) was 2.516 ± 0.022 mPa·s and the viscosity (303 K, 101 kPa, x1 = 0.2) was 2.622 ± 0.023 mPa·s. For the same molecule, the viscosity (303 K, 101 kPa, x1 = 0.25) was 2.57 ± 0.023 mPa·s, the viscosity (303 K, 101 kPa, x1 = 0.3) was 2.392 ± 0.021 mPa·s and the viscosity (303 K, 101 kPa, x1 = 0.4) was 1.901 ± 0.018 mPa·s. It also gave a viscosity (303 K, 101 kPa, x1 = 0.5) of 1.419 ± 0.015 mPa·s, a viscosity (303 K, 101 kPa, x1 = 0.6) of 1.06 ± 0.013 mPa·s and a viscosity (303 K, 101 kPa, x1 = 0.7) of 0.787 ± 0.012 mPa·s. The viscosity (303 K, 101 kPa, x1 = 0.8) was 0.609 ± 0.011 mPa·s, the viscosity (303 K, 101 kPa, x1 = 0.85) was 0.543 ± 0.011 mPa·s and the viscosity (303 K, 101 kPa, x1 = 0.9) was 0.49 ± 0.011 mPa·s. The viscosity (303 K, 101 kPa, x1 = 0.92) was 0.47 ± 0.011 mPa·s, the viscosity (303 K, 101 kPa, x1 = 0.95) was 0.442 ± 0.011 mPa·s and the viscosity (303 K, 101 kPa, x1 = 0.97) was 0.426 ± 0.011 mPa·s. It also gave a viscosity (303 K, 101 kPa, x1 = 0.98) of 0.419 ± 0.011 mPa·s, a viscosity (303 K, 101 kPa, x2 = 0.01) of 0.417 ± 0.011 mPa·s and a viscosity (303.15 K, 101.33 kPa, x1 = 0.1001) of 2.222 ± 0.014 mPa·s. The viscosity (303.15 K, 101.33 kPa, x1 = 0.2002) was 2.645 ± 0.017 mPa·s, the viscosity (303.15 K, 101.33 kPa, x1 = 0.2998) was 2.422 ± 0.017 mPa·s and the viscosity (303.15 K, 101.33 kPa, x1 = 0.3996) was 1.935 ± 0.014 mPa·s. It also gave a viscosity (303.15 K, 101.33 kPa, x1 = 0.5) of 1.453 ± 0.012 mPa·s, a viscosity (303.15 K, 101.33 kPa, x1 = 0.5999) of 1.076 ± 0.0096 mPa·s and a viscosity (303.15 K, 101.33 kPa, x1 = 0.6984) of 0.8077 ± 0.0079 mPa·s. It also gave a viscosity (303.15 K, 101.33 kPa, x1 = 0.7998) of 0.6226 ± 0.0066 mPa·s, a viscosity (303.15 K, 101.33 kPa, x1 = 0.9) of 0.5017 ± 0.0058 mPa·s and a viscosity (308 K, 101 kPa, x1 = 0.001) of 0.73 ± 0.012 mPa·s. For the same molecule, the viscosity (308 K, 101 kPa, x1 = 0.01) was 0.846 ± 0.012 mPa·s, the viscosity (308 K, 101 kPa, x1 = 0.02) was 0.99 ± 0.013 mPa·s and the viscosity (308 K, 101 kPa, x1 = 0.03) was 1.132 ± 0.014 mPa·s. The viscosity (308 K, 101 kPa, x1 = 0.04) was 1.263 ± 0.014 mPa·s, the viscosity (308 K, 101 kPa, x1 = 0.05) was 1.394 ± 0.015 mPa·s and the viscosity (308 K, 101 kPa, x1 = 0.06) was 1.571 ± 0.016 mPa·s. For the same molecule, the viscosity (308 K, 101 kPa, x1 = 0.08) was 1.718 ± 0.017 mPa·s, the viscosity (308 K, 101 kPa, x1 = 0.1) was 1.871 ± 0.018 mPa·s and the viscosity (308 K, 101 kPa, x1 = 0.15) was 2.168 ± 0.021 mPa·s. For the same molecule, the viscosity (308 K, 101 kPa, x1 = 0.2) was 2.211 ± 0.021 mPa·s, the viscosity (308 K, 101 kPa, x1 = 0.25) was 2.16 ± 0.02 mPa·s and the viscosity (308 K, 101 kPa, x1 = 0.3) was 2.061 ± 0.02 mPa·s. It also gave a viscosity (308 K, 101 kPa, x1 = 0.4) of 1.643 ± 0.017 mPa·s, a viscosity (308 K, 101 kPa, x1 = 0.5) of 1.24 ± 0.014 mPa·s and a viscosity (308 K, 101 kPa, x1 = 0.7) of 0.712 ± 0.011 mPa·s. It also gave a viscosity (308 K, 101 kPa, x1 = 0.8) of 0.566 ± 0.011 mPa·s, a viscosity (308 K, 101 kPa, x1 = 0.85) of 0.499 ± 0.011 mPa·s and a viscosity (308 K, 101 kPa, x1 = 0.9) of 0.451 ± 0.011 mPa·s. It also gave a viscosity (308 K, 101 kPa, x1 = 0.92) of 0.433 ± 0.011 mPa·s, a viscosity (308 K, 101 kPa, x1 = 0.95) of 0.41 ± 0.011 mPa·s and a viscosity (308 K, 101 kPa, x1 = 0.97) of 0.396 ± 0.011 mPa·s. For the same molecule, the viscosity (308 K, 101 kPa, x1 = 0.98) was 0.389 ± 0.011 mPa·s, the viscosity (308 K, 101 kPa, x2 = 0.01) was 0.383 ± 0.011 mPa·s and the viscosity (308.15 K, 101.33 kPa, x1 = 0.1001) was 1.888 ± 0.012 mPa·s. For the same molecule, the viscosity (308.15 K, 101.33 kPa, x1 = 0.2002) was 2.229 ± 0.014 mPa·s, the viscosity (308.15 K, 101.33 kPa, x1 = 0.2998) was 2.058 ± 0.014 mPa·s and the viscosity (308.15 K, 101.33 kPa, x1 = 0.3996) was 1.655 ± 0.012 mPa·s. It also gave a viscosity (308.15 K, 101.33 kPa, x1 = 0.5) of 1.258 ± 0.01 mPa·s, a viscosity (308.15 K, 101.33 kPa, x1 = 0.5999) of 0.9485 ± 0.0085 mPa·s and a viscosity (308.15 K, 101.33 kPa, x1 = 0.6984) of 0.726 ± 0.0071 mPa·s. It also gave a viscosity (308.15 K, 101.33 kPa, x1 = 0.7998) of 0.5736 ± 0.0062 mPa·s.
